The source of these data is ChEMBL document CHEMBL1770050, “Effect of carbohydrate amino group modifications on the cytotoxicity of glycosylated 2-phenyl-benzo[b]thiophenes and 2-phenyl-benzo[b]furans” (Bioorg Med Chem Lett, 2011).

The test system of test [1] is HT-29. The test is described as follows: Cytotoxicity against human HT-29 cells after 3 days by MTS assay. The format is functional, cell-based. Particulars: HT-29, 72 h. In general terms: Tetrazolium dyes change colour on reduction, which living cells bring about.
Test [2] relates to HepG2. In words: Cytotoxicity against human HepG2 cells after 3 days by MTS assay. It is filed as functional, cell-based. Particulars: HepG2, 72 h.
In test [3] the test system is MCF7. The test is described as follows: Cytotoxicity against human MCF7 cells after 3 days by MTS assay. It is filed as functional, cell-based. Particulars: MCF7, 72 h.
Test [4] relates to Nucleic Acid. In words: Binding affinity to Sheared herring sperm DNA assessed as remaining displaced EtBr by fluorescent intercalator displacement assay. The format is nucleic-acid assay. The arrangement: concentration or dose not given beside the values.
The test system of test [5] is HepG2. The test is described as follows: Cytotoxicity against human HepG2 cells assessed as cell viability at 25 uM after 3 days by MTS assay. It is filed as functional. Particulars: HepG2, 72 h, read-out: Activity.
For test [6], the system named is HT-29. The test is described as follows: Cytotoxicity against human HT-29 cells assessed as cell viability at 25 uM after 3 days by MTS assay. Particulars: HT-29, 72 h, read-out: Activity. It is filed as functional.
The subject of test [7] is MCF7. The test is described as follows: Cytotoxicity against human MCF7 cells assessed as cell viability at 25 uM after 3 days by MTS assay. The format is functional. Particulars: MCF7, 72 h, read-out: Activity.
Test [8] deals with MCF7. The test is described as follows: Cytotoxicity against human MCF7 cells at 25 µM after 3 days by MTS assay. Particulars: MCF7, 72 h.

Bounds are passed on as bounds.

Regarding `C[C@H](N)C(=O)N[C@H]1CC[C@H](OCC#Cc2c(-c3ccccc3)oc3ccccc23)O[C@H]1C`, the IC50 in test [1] stood at 6.8 µM; in test [2] it was 4.1 µM; in test [3], 8 µM. Besides, in test [4], the Activity turned out to be 52.9%.
Turning to `CCCCCCN[C@H]1CC[C@H](OCC#Cc2c(-c3ccccc3)oc3ccccc23)O[C@H]1C`, the IC50 in test [1] is 6 µM; in test [2], 14.4 µM; in test [3], 14.8 µM.
The like results for `C[C@@H]1O[C@@H](OCC#Cc2c(-c3ccccc3)sc3ccccc23)CC[C@@H]1N(C)C` were, in that order, 3.3 µM, 10 µM and 8.2 µM.
For `C[C@@H]1O[C@@H](OCC#Cc2c(-c3ccccc3)oc3ccccc23)CC[C@@H]1NCc1ccccn1`, the values for the concentration for half-maximal inhibition (IC50) in test [1], in test [2] and in test [3] were 10.8 µM, 16.3 µM and 14.3 µM, respectively. Besides, the figures for the viability at 25 µM in test [5], in test [6] and in test [7] were < 1%, < 1% and 11%, respectively.
For `C[C@@H]1O[C@@H](OCC#Cc2c(-c3ccccc3)oc3ccccc23)CC[C@@H]1N(C)C`, the figures for the IC50 in test [1], in test [2] and in test [3] were 6.1 µM, 6.8 µM and 10.3 µM, respectively.
Consider `CN[C@H]1CC[C@H](OCC#Cc2c(-c3ccccc3)sc3ccccc23)O[C@H]1C`, for which the IC50 came out at 5.4 µM in test [1], 8.8 µM in test [2] and 7.1 µM in test [3].
The like results for `CCCCN[C@H]1CC[C@H](OCC#Cc2c(-c3ccccc3)sc3ccccc23)O[C@H]1C` were, in that order, 7 µM, 18.6 µM and 10.2 µM.
For `C[C@@H]1O[C@@H](OCC#Cc2c(-c3ccccc3)oc3ccccc23)CC[C@@H]1NCc1ccc[nH]1`, the IC50 turned out to be 11.1 µM in test [1], 20.8 µM in test [2] and 18.1 µM in test [3]. Moreover, the viability at 25 µM is < 1% in test [5], < 1% in test [6] and 14% in test [7].
With `COc1ccc(CN[C@H]2CC[C@H](OCC#Cc3c(-c4ccccc4)oc4ccccc34)O[C@H]2C)cc1`, the IC50 in test [1] worked out at 7.9 µM; in test [2], 13.1 µM. The values for the viability at 25 µM in test [5], in test [6] and in test [7] were 12%, 8% and 31%, respectively. This molecule also yielded a cell viability at 25 µM in test [8] of 31%.
In the case of `C[C@@H]1O[C@@H](OCC#Cc2c(-c3ccccc3)oc3ccccc23)CC[C@@H]1NCc1ccco1`, the IC50 in test [1] is 15.2 µM; in test [2], > 25 µM; in test [3], > 25 µM. Also, the figures for the viability at 25 µM in test [5], in test [6] and in test [7] were 70%, 24% and 77%, respectively.
Consider `CCN(CC)[C@H]1CC[C@H](OCC#Cc2c(-c3ccccc3)sc3ccccc23)O[C@H]1C`, for which the figures for the IC50 in test [1], in test [2] and in test [3] were 3.9 µM, 11.7 µM and 12 µM, respectively.
In the case of `C[C@@H]1O[C@@H](OCC#Cc2c(-c3ccccc3)oc3ccccc23)CC[C@@H]1NCc1ccc(O)cc1`, the IC50 in test [1] was 5.8 µM; in test [2], 13.4 µM; in test [3], 10.9 µM. Moreover, the viability at 25 µM in test [5] is < 1%; in test [6] it was < 1%; in test [7], 2%.
On to `CCCCCCN[C@H]1CC[C@H](OCC#Cc2c(-c3ccccc3)sc3ccccc23)O[C@H]1C`, for which the IC50 in test [1] amounted to 5.1 µM; in test [2], 19.1 µM; in test [3], 6.8 µM.
The matching figures for `CCCCN[C@H]1CC[C@H](OCC#Cc2c(-c3ccccc3)oc3ccccc23)O[C@H]1C`: 9.8 µM, 19 µM and 20.8 µM.
Consider `C[C@@H]1O[C@@H](OCC#Cc2c(-c3ccccc3)sc3ccccc23)CC[C@@H]1N(C)CC#N`, for which the results for the IC50 in test [1], in test [2] and in test [3] were 6.2 µM, 12.3 µM and 7.7 µM, respectively.
As to `C[C@@H]1O[C@@H](OCC#Cc2c(-c3ccccc3)oc3ccccc23)CC[C@@H]1NCC1CCCCC1`, the IC50 in test [1] is 10.2 µM; in test [2] it was > 25 µM; in test [3], > 25 µM.
As for `CC(C)CCN(CCC(C)C)[C@H]1CC[C@H](OCC#Cc2c(-c3ccccc3)oc3ccccc23)O[C@H]1C`, the IC50 in test [1], in test [2] and in test [3] was > 25 µM throughout.
Consider `CCCCN(CCCC)[C@H]1CC[C@H](OCC#Cc2c(-c3ccccc3)sc3ccccc23)O[C@H]1C`, for which the IC50 in test [1], in test [2] and in test [3] was > 25 µM throughout.
Turning to `C[C@@H]1O[C@@H](OCC#Cc2c(-c3ccccc3)sc3ccccc23)CC[C@@H]1NCC#N`, the IC50 came to 10.8 µM in test [1], 18 µM in test [2] and 10.5 µM in test [3].
Take `COc1cc(CN[C@H]2CC[C@H](OCC#Cc3c(-c4ccccc4)oc4ccccc34)O[C@H]2C)cc(OC)c1OC`: the IC50 in test [1] came to 8 µM; in test [2], 11.3 µM. In addition, the viability at 25 µM in test [5] worked out at 7%; in test [6], 6%; in test [7], 30%. The same molecule registered a cell viability at 25 µM in test [8] of 30%.
For `CC(=O)N[C@H]1CC[C@H](OCC#Cc2c(-c3ccccc3)oc3ccccc23)O[C@H]1C`, the figures for the IC50 in test [1], in test [2] and in test [3] were 13.3 µM, 18.2 µM and 23.4 µM, respectively. Also, in test [4], the Activity was found to be 98.6%.
Turning to `C[C@@H]1O[C@@H](OCC#Cc2c(-c3ccccc3)oc3ccccc23)CC[C@@H]1NCc1ccccc1`, the 50% inhibitory concentration (IC50) in test [1] was 17.9 µM; in test [2] it was > 25 µM; in test [3], > 25 µM. For the same molecule, the viability at 25 µM in test [5] came out at 87%; in test [6] it was 31%; in test [7], 72%.
For `COc1ccc(CN[C@H]2CC[C@H](OCC#Cc3c(-c4ccccc4)sc4ccccc34)O[C@H]2C)cc1`, the 50% inhibitory concentration (IC50) in test [1] was 6.2 µM; in test [2] it was > 25 µM; in test [3], > 25 µM.
`C[C@@H]1O[C@@H](OCC#Cc2c(-c3ccccc3)sc3ccccc23)CC[C@@H]1NCc1ccccc1`: the results for the IC50 in test [1], in test [2] and in test [3] were 19 µM, > 25 µM and > 25 µM, respectively.
On to `CC(C)CCN[C@H]1CC[C@H](OCC#Cc2c(-c3ccccc3)oc3ccccc23)O[C@H]1C`, for which the values for the half-maximal inhibitory concentration (IC50) in test [1], in test [2] and in test [3] were 6.6 µM, 13.6 µM and 11.3 µM, respectively.
As to `C[C@@H]1O[C@@H](OCC#Cc2c(-c3ccccc3)oc3ccccc23)CC[C@@H]1N`, the viability at 25 µM in test [5], in test [6] and in test [7] was < 1% in each case. In test [4], the Activity stood at 68.5%.
In the case of `CC(C)N[C@H]1CC[C@H](OCC#Cc2c(-c3ccccc3)oc3ccccc23)O[C@H]1C`, the concentration for half-maximal inhibition (IC50) came to 5.8 µM in test [1], 13 µM in test [2] and 12.6 µM in test [3]. The Activity in test [4] worked out at 79%.
As for `C[C@@H]1O[C@@H](OCC#Cc2c(-c3ccccc3)oc3ccccc23)CC[C@@H]1NCc1ccc([N+](=O)[O-])cc1`, the IC50 in test [1], in test [2] and in test [3] was > 25 µM in each case. Also, the viability at 25 µM in test [5] is 94%; in test [6], 59%; in test [7] it was 86%.
`CCCCN(CCCC)[C@H]1CC[C@H](OCC#Cc2c(-c3ccccc3)oc3ccccc23)O[C@H]1C`: the IC50 in test [1], in test [2] and in test [3] was > 25 µM each time.
In the case of `CCN(CC)[C@H]1CC[C@H](OCC#Cc2c(-c3ccccc3)oc3ccccc23)O[C@H]1C`, the values for the IC50 in test [1], in test [2] and in test [3] were 6.8 µM, 10.7 µM and 9.7 µM, respectively.
`Cc1ccc(CN[C@H]2CC[C@H](OCC#Cc3c(-c4ccccc4)oc4ccccc34)O[C@H]2C)cc1`: the IC50 in test [1] is 11.9 µM; in test [2], > 25 µM; in test [3], > 25 µM. In addition, the figures for the viability at 25 µM in test [5], in test [6] and in test [7] were 65%, 29% and 51%, respectively.
Take `CCN[C@H]1CC[C@H](OCC#Cc2c(-c3ccccc3)oc3ccccc23)O[C@H]1C`: the IC50 in test [1] turned out to be 5.8 µM; in test [2], 6 µM; in test [3], 9.2 µM. For the same molecule, in test [4], the Activity worked out at 26%.
For the molecule `C[C@@H]1O[C@@H](OCC#Cc2c(-c3ccccc3)sc3ccccc23)CC[C@@H]1NCc1ccc(O)cc1`, the figures for the IC50 in test [1], in test [2] and in test [3] were 5.1 µM, 20.3 µM and 12 µM, respectively.
The matching figures for `CCN[C@H]1CC[C@H](OCC#Cc2c(-c3ccccc3)sc3ccccc23)O[C@H]1C`: 3.4 µM, 6.6 µM and 5.9 µM.

The term IC50 denotes the concentration that gives 50% inhibition. The term cell viability denotes the share of living cells, or the viability signal relative to a control.
